Data reported in publication PMC12281477, “Live-Cell NanoBRET Assay to Measure AKT Inhibitor Binding to Conformational States of AKT” (ACS Chemical Biology, 2025).

Key:
AKT1-NL [1] = molecular target: T1, AKT1-NL (Homo sapiens, UniProt P31749); assay: Live-cell steady-state NanoBRET target engagement assay, AKT1-NL; format: binding
T1 construct: full-length versions of AKT1, AKT2, and AKT3, were separately subcloned into pNLF1-N or pNLF1-C vectors; expressed in transfected cells; host or cells: HEK293T
T1 sequence (P31749 whole entry): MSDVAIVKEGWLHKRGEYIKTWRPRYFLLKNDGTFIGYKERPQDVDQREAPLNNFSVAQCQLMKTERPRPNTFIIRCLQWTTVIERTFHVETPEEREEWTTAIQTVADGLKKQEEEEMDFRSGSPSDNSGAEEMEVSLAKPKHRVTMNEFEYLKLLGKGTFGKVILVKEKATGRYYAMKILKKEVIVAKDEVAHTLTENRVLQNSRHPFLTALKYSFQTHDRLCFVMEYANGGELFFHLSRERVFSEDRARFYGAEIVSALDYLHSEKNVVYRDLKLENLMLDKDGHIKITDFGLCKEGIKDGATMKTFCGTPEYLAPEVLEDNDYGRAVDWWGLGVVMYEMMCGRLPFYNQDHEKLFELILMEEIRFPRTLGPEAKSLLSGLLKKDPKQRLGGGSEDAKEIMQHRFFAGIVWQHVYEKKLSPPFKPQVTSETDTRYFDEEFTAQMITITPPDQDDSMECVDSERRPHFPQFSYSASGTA
Procedure: (§2) In this live-cell assay, bioluminescence resonance energy transfer (BRET) produced by the interaction of a transfected NanoLuciferase (NL)-tagged protein of interest and a protein-bound Bodipy-containing tracer molecule is dose-dependently competed out with a drug.
(§3) This solution was aliquoted into white adherent 96-well plates at a volume of 100 μL/well and incubated for 24 h at 37 °C and 5% CO2. […] Following all inhibitor and tracer additions, cells were incubated at 37 °C and 5% CO2 for 2 h. 50 μL of a 3× solution of Opti-MEM containing a NanoGlo substrate and NanoLuciferase inhibitor provided in the NanoBRET kit were added to each well.
(§4) Calculated K i values were calculated using the following formula Ki=IC50,tracer/(1+[tracer]/EC50,tracer)

AKT3-NL [2] = molecular target: T2, AKT3-NL (Homo sapiens, UniProt Q9Y243); assay: Live-cell steady-state NanoBRET target engagement assay, AKT3-NL
T2 sequence (Q9Y243 whole entry): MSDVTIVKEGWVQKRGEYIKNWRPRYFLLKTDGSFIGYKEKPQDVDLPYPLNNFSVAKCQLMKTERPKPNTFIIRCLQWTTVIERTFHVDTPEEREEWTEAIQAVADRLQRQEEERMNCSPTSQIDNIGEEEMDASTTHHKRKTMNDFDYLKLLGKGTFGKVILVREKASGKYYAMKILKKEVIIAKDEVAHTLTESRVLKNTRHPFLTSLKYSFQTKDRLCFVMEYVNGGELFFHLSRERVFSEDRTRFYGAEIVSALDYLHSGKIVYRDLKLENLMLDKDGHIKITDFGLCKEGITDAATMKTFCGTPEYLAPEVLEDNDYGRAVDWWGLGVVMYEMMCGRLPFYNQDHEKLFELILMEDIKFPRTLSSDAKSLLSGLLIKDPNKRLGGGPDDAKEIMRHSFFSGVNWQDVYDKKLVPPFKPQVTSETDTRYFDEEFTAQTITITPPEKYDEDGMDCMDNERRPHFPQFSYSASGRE
Procedure: as §2, §3, §4

MDA-MB-468 cells = assay: Resazurin cell viability assay, MDA-MB-468; format: cell-based; conditions: Homo sapiens, MDA-MB-468, 120 h, 5 days, ± SEM, n = 3
AKT1-NL [3] = molecular target: T1, AKT1-NL; assay: Bioluminescent imaging of AKT1-NL localization in HEK293T cells; format: cell-based; conditions: 2 h treatment, compared to DMSO
Procedure: (§1) We also performed bioluminescent imaging on AKT1-NL, AKT2-NL, and AKT3-NL transfected into HEK293T cells treated individually with all AKT inhibitors for 2 h (Figure S1F). […] After incubation, 2 μL of NanoGlo substrate was added to each well and imaged using the GloMax Galaxy Bioluminescence Imager utilizing a 40× objective (Nikon CFI Plan Fluor- Material Number MRH01401) and exposure times ranging from 32 to 100 s. […] Images were processed in Fiji.

AKT3-NL [4] = molecular target: T2, AKT3-NL; assay: Bioluminescent imaging of AKT3-NL localization in HEK293T cells; format: cell-based; design: full-length versions of AKT1, AKT2, and AKT3, were separately subcloned into pNLF1-N or pNLF1-C vectors; expressed in transfected cells; host or cells: HEK293T; conditions: 2 h treatment, compared to DMSO
Procedure: as §1

MDA-MB-231 cells = assay: Resazurin cell viability assay, MDA-MB-231; format: cell-based; conditions: Homo sapiens, MDA-MB-231, 120 h, 5 days, ± SEM, n = 3
Myr-AKT1-NL = molecular target: T3, Myr-AKT1-NL (Homo sapiens, UniProt P31749); assay: NanoBRET target engagement assay, Myr-AKT1-NL; format: binding
T3 construct: host or cells: HEK293T
T3 sequence (P31749 whole entry): as the sequence (P31749 whole entry) above
Excerpt: It was puzzling to understand why ATP-competitive inhibitors bound more tightly to some pathological mutants. […] To achieve an active AKT population characterized by increased phosphorylation and membrane association, we created N-terminally myristoylated AKT1–3-NL constructs (Figure A). AKT myristoylation is commonly used to keep AKT membrane-associated and available for phosphorylation by PDK1 and mTORC2. , We decided to use myristoylation instead of treatment with a PI3K-AKT stimulating hormone such as IGF1 because of transient time-dependent effects on phosphorylation that complicates the reproducibility of our NanoBRET assay. , Bioluminescent imaging of Myr-AKT1-NL, Myr-AKT2-NL, and Myr-AKT3-NL constructs confirmed that each isoform was associated at the cell membrane (Figure S4A).
Statistics were performed in Origin 2023.

PDK1-NL = molecular target: T4, PDK1-NL (Homo sapiens, UniProt O15530); assay: NanoBRET competition assay using PDK1-NL; format: binding; conditions: ± SEM, n = 3 biological replicates; read-out: PDK1-NL calculated Ki
T4 sequence (O15530 1-556): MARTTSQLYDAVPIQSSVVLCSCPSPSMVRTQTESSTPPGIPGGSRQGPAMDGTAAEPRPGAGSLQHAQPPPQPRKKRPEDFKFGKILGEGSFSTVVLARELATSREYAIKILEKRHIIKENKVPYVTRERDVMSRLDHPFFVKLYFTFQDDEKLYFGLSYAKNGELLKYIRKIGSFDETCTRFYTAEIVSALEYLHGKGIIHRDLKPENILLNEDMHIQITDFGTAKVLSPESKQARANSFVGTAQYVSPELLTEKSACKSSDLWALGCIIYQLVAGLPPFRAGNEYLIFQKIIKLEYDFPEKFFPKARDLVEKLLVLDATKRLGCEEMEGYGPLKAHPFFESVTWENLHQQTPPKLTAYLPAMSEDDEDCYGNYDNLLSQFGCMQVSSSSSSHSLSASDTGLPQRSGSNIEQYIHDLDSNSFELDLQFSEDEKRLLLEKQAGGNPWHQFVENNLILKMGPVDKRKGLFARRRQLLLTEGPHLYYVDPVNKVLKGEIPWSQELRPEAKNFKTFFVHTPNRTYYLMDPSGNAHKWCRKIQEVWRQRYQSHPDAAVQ
Procedure: as §3, §4

AKT3-E17K-NL = molecular target: T5, AKT3-E17K-NL (Homo sapiens, UniProt Q9Y243, E17K); assay: NanoBRET competition assay, AKT3-E17K-NL; format: binding
T5 construct: full-length versions of AKT1, AKT2, and AKT3, were separately subcloned into pNLF1-N or pNLF1-C vectors; expressed in transfected cells
T5 sequence (Q9Y243 whole entry E17K): as the sequence (Q9Y243 whole entry) above, with E17K counted along it
Procedure: We next quantified the binding of ATP-competitive and allosteric inhibitors to these pathogenic mutants.
For coexpression experiments with Myr-AKT1-NL and PDK1, a DNA ratio of 9:0.5:0.5, μg/mL carrier DNA/Myr-AKT1-NL: PDK1 was used. This solution was aliquoted into white adherent 96-well plates at a volume of 100 μL/well and incubated for 24 h at 37 °C and 5% CO2. […] Following all inhibitor and tracer additions, cells were incubated at 37 °C and 5% CO2 for 2 h. 50 μL of a 3× solution of Opti-MEM containing a NanoGlo substrate and NanoLuciferase inhibitor provided in the NanoBRET kit were added to each well.
as §4

AKT2-NL = molecular target: T6, AKT2-NL (Homo sapiens, UniProt P31751); assay: Bioluminescent imaging of AKT2-NL localization in HEK293T cells; format: cell-based; conditions: 2 h treatment, compared to DMSO
T6 construct: full-length versions of AKT1, AKT2, and AKT3, were separately subcloned into pNLF1-N or pNLF1-C vectors; expressed in transfected cells; host or cells: HEK293T
T6 sequence (P31751 whole entry): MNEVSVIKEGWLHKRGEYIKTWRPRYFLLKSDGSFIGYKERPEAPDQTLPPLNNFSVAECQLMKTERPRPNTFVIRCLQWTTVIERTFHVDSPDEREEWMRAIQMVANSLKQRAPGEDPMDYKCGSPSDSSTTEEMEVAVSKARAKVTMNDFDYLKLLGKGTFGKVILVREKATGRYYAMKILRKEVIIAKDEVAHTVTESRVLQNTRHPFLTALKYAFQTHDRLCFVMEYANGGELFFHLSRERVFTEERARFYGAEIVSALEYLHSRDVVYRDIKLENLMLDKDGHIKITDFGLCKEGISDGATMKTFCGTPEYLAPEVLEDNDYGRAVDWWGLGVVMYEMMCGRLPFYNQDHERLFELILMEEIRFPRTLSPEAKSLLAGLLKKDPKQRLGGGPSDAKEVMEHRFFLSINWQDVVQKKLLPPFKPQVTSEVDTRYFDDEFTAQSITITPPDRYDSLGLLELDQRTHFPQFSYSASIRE
Procedure: as §1

[5] = vs absence of BX-795, 0.2% DMSO

For `Cc1n[nH]c2ccc(-c3cncc(OCC(N)Cc4c[nH]c5ccccc45)c3)cc12` (stereo not shown) [A-443654], which Ki (AKT1-NL [1]) is on record?
The Ki was 32.7 ± 14.1 nM.

What about the “Binding to AKT1-NL in the presence of 1 μM BX-795” value (AKT1-NL [1]; [5]) of the same molecule?
The value was “unaffected”.

And the Ki (AKT3-NL [2])?
Its Ki is 16.6 ± 5.5 nM.

What about the IC50 (MDA-MB-468 cells) of the same molecule?
Its IC50 is 20 ± 1 nM.

And the AKT1-NL localization change (AKT1-NL [3])?
The AKT1-NL localization change was “induced movement of all isoforms to the cell membrane and nucleus”.

And the AKT3-NL localization change (AKT3-NL [4])?
The AKT3-NL localization change was “induced movement of all isoforms to the cell membrane and nucleus”.

What about the IC50 (MDA-MB-231 cells) of the same molecule?
The IC50 was 330 ± 10 nM.

And the “Binding to Myr-AKT1-NL in the presence of 1 μM BX-795” value (Myr-AKT1-NL; [5])?
The value was “bound more weakly”.

Which results are given for `O=C(NCCCNc1nc(Nc2cccc(NC(=O)N3CCCC3)c2)ncc1I)c1cccs1` [BX-795]?
Concentration at which some binding to AKT1-NL was observed (AKT1-NL [1]; dose-response curve): higher than 1 μM; Ki (PDK1-NL): 5.85 ± 0.42 nM; Concentration at which some binding to Myr-AKT1-NL was observed (Myr-AKT1-NL; dose-response curve): higher than 1 μM

Which results are given for `NC1(c2ccc(-c3nc4ccn5c(=O)[nH]nc5c4cc3-c3ccccc3)cc2)CCC1` [MK-2206]?
Binding to AKT3-E17K-NL (AKT3-E17K-NL): did not bind; AKT2-NL localization change (AKT2-NL): did not induce AKT localization changes; AKT1-NL localization change (AKT1-NL [3]): did not induce AKT localization changes; AKT3-NL localization change (AKT3-NL [4]): did not induce AKT localization changes

How did the AKT2-NL localization change (AKT2-NL) turn out when `O=c1[nH]c2ccccc2n1C1CCN(Cc2ccc(-c3nc4cc5[nH]cnc5cc4nc3-c3ccccc3)cc2)CC1` [inhibitor VIII] was run?
The AKT2-NL localization change was “did not induce AKT localization changes”.

What about the AKT1-NL localization change (AKT1-NL [3]) of the same molecule?
The AKT1-NL localization change was “did not induce AKT localization changes”.

What about the AKT3-NL localization change (AKT3-NL [4]) of the same molecule?
The AKT3-NL localization change was “did not induce AKT localization changes”.

`CC(C)NC[C@@H](C(=O)N1CCN(c2ncnc3c2[C@H](C)C[C@H]3O)CC1)c1ccc(Cl)cc1` [ipatasertib] was tested. Which AKT1-NL localization change (AKT1-NL [3]) did it give?
Its AKT1-NL localization change is “induced the movement of some AKT to the cell membrane”.
